# Patent publication EP1227795B1, “LIPID COMPLEX OF ALKYCYCLINES” (priority 1999, dated 2001)
# Experiment: water solubility of the alkycycline
# Type: physicochemical
# Procedure: The alkycycline of formula Ia as defined above is quite water insoluble (less than 0.1 mg/ml). This makes it difficult to be formulated as a sterile, storage stable, dosage form. Additionally, the alkycycline is unstable: • after twelve months at 4°C the decomposition of the bulk product is about from 4 to 6%. This percentage of decomposition is absolutely not acceptable for a pharmaceutical product.
substance,measurement,value
4-demethoxy-3'-deamino-3'-aziridinyl-4'-methansulfonyl daunorubicin [Ia],water solubility,less than 0.1 mg/ml
